Here are results for 47 compounds from PubChem BioAssay AID2202554 (NIEHS Division of Translational Toxicology (DTT)).

Structures are written as SMILES. Results filed as inconclusive are left out. Active and inactive are the calls of the source. No rule for the calls is given here.

The series deals with S. typhimurium/E. coli reverse mutation, colony counts. The series can be described thus: Bacterial reverse mutation test (aka Ames test) summary data. A digest of the protocol:
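Revertant colony counts on plates, compared with untreated controls, after about two days of growth. Exposure with or without liver S9 (rat/hamster/mouse), dose range per strain, 20-min 37° C preincubation or direct plate incorporation. Strains: his⁻ Salmonella, trp⁻ E. coli WP2 uvrA pKM101.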
Take `Clc1c(Cl)c(Br)c2c(c1Cl)-c1nc-2nc2[n-]c(nc3nc(nc4[n-]c(n1)c1c(Cl)c(Br)c(Cl)c(Br)c41)-c1c(Cl)c(Cl)c(Br)c(Cl)c1-3)c1c(Br)c(Cl)c(Br)c(Cl)c21.[Cu+2]`: the outcome is “active; positive”.

Take `Cl`: the outcome was “inactive; negative”. Consider `Nc1cc(Cl)cc(S(=O)(=O)O)c1O`, for which the outcome is “inactive; negative”. Turning to `COc1cc(N)ccc1C`, the outcome is “active; positive”. The result for `OCCOCCOCCO` reads “active; positive”; that for `Nc1ccc2cc(S(=O)(=O)O)c(N=Nc3ccc(-c4ccc(N=Nc5ccc(O)c(C(=O)O)c5)cc4)cc3)c(O)c2c1`, “active; positive”.

For the compound `Oc1c(Br)c(Br)c(Br)c(Br)c1Br`, the outcome was “inactive; negative”. Regarding `O=S(O)c1ccc(Cl)cc1`, the outcome is “inactive; negative”.

For `Cc1cccc(N)c1C`, the outcome is “active; positive”. The result for `Nc1ccc2c(c1)C(=O)c1ccccc1C2=O` reads “active; positive”. The result for `Nc1ccc(S(=O)(=O)Nc2nccs2)cc1` reads “inactive; negative”; that for `c1ccc2c(c1)Oc1ccccc1S2`, “inactive; negative”; that for `CC(C)Cc1nccs1`, “active; positive”. Turning to `ClC(Cl)C(Cl)Cl`, the outcome is “inactive; negative”.

As for `COc1ccc(C)cc1N`, the outcome is “active; positive”.

For `O=S(=O)(O)c1ccccc1`, the outcome is “inactive; negative”. Take `CCCC[N+](=O)[O-]`: the outcome is “inactive; negative”. For `COc1cc2c(c3oc(=O)c4c(c13)CCC4=O)[C@@H]1C=CO[C@@H]1O2` the value was “active; positive”. The result for `CCCN(CCC)C(=O)CN` reads “active; positive”. `COCCOCCOCCOC`: the outcome was “active; positive”. For `OCCO` the value was “inactive; negative”. Consider `Clc1ccc2c(c1)Oc1ccc(Cl)cc1O2`, for which the outcome was “inactive; negative”.

In the case of `Sc1ccccc1`, the outcome is “inactive; negative”.

With `CCOC(C=C(C)CCC=C(C)C)OCC`, the outcome was “active; positive”. For `OCc1c[nH]c2ccccc12`, the outcome is “active; positive”. Turning to `OCCCCl`, the outcome is “active; positive”. With `CCOc1ccc(NC(C)=O)cc1N`, the outcome was “active; positive”. `CCCCCCOC(=O)c1ccccc1`: the outcome was “inactive; negative”. Consider `CC(C)(C)C(=O)C1C(=O)c2ccccc2C1=O`, for which the outcome is “inactive; negative”. For `CC(=O)c1ccc(S(=O)(=O)NC(=O)NC2CCCCC2)cc1`, the outcome was “inactive; negative”. The result for `COC(=O)CCCCC(=O)OC` reads “inactive; negative”; that for `Cc1cccc(Br)c1`, “inactive; negative”; that for `CCC(C(N)=O)(C(N)=O)c1ccccc1`, “active; weakly positive”.

Take `OCC(O)CCl` (configuration not stated): the outcome was “active; positive”. For `Cc1cccnc1` the value was “inactive; negative”; for `CC(=O)c1ccncc1`, “inactive; negative”; for `CC(=O)C(C)=NO`, “inactive; negative”. `C=CC(=O)OCC(CC)(COC(=O)C=C)COC(=O)C=C`: the outcome is “inactive; negative”. With `Nc1nc(-c2ccccc2)cs1`, the outcome is “active; positive”.

Take `N[C@H](Cc1ccccc1)C(=O)O`: the outcome is “inactive; negative”. With `CC(=O)Nc1ccc(C(=O)CCl)cc1`, the outcome is “active; positive”. `CC(=O)Nc1ccccc1`: the outcome was “inactive; negative”. For `CCn1cc[n+](C)c1` the value was “inactive; negative”; for `O=C(O)COc1ccc(Cl)cc1Cl`, “inactive; negative”; for `CC(=O)O`, “inactive; negative”. For `IC(I)I`, the outcome is “active; positive”. As for `CC(=O)c1ccccc1[N+](=O)[O-]`, the outcome is “inactive; negative”.
